Experimental data: patent US5545639A, “Method of inhibiting transformed cells” (The United States of America as represented by the …, priority 1994, dated 1996)

Experiments:
Test in all cases: Dose response of growth, tumor cell line
Type in all cases: cell-based
[1] = test system: A549/ATCC; settings: Homo sapiens, non-small cell lung cancer
Method: (§1) Indeed, 70% of the cell lines were shown not only to experience precluded growth, but cell death, when exposed to less then 100 μM of the active ingredient.

[2] = test system: CCRF-CEM; settings: Homo sapiens, leukemia
Method: as §1

[3] = test system: DLD-A; settings: Homo sapiens, colon cancer
Method: as §1

[4] = test system: DMS 114; settings: Homo sapiens, DMS 114, small cell lung cancer
Method: as §1

[5] = test system: EKVX; settings: Homo sapiens, non-small cell lung cancer
Method: as §1

[6] = test system: HCC-2998; settings: Homo sapiens, HCC-2998, colon cancer
Method: as §1

[7] = test system: HL-60 (TB); settings: Homo sapiens, leukemia
Method: as §1

[8] = test system: HOP-18; settings: Homo sapiens, HOP-18, non-small cell lung cancer
Method: as §1

[9] = test system: HT29; settings: Homo sapiens, HT-29, HT29, colon cancer
Method: as §1

[10] = test system: KM12; settings: Homo sapiens, KM12, colon cancer
Method: as §1

[11] = test system: MALME-3M; settings: Homo sapiens, melanoma
Method: as §1

[12] = test system: MCF7/ADR-RES; settings: Homo sapiens, miscellaneous
Method: as §1

[13] = test system: MOLT-4; settings: Homo sapiens, MOLT-4, leukemia
Method: as §1

[14] = test system: NCI-H226; settings: Homo sapiens, NCI-H226, non-small cell lung cancer
Method: as §1

[15] = test system: OVCAR-3; settings: Homo sapiens, OVCAR-3, ovarian cancer
Method: as §1

[16] = test system: OVCAR-5; settings: Homo sapiens, OVCAR-5, ovarian cancer
Method: as §1

[17] = test system: OVCAR-8; settings: Homo sapiens, OVCAR-8, ovarian cancer
Method: as §1

[18] = test system: RXF-393; settings: Homo sapiens, RXF-393, renal cancer
Method: as §1

[19] = test system: SF-268; settings: Homo sapiens, SF-268, CNS cancer
Method: as §1

[20] = test system: SF-539; settings: Homo sapiens, SF-539, CNS cancer
Method: as §1

[21] = test system: SK-MEL-28; settings: Homo sapiens, SK-MEL-28, melanoma
Method: as §1

[22] = test system: SK-MEL-2; settings: Homo sapiens, SK-MEL-2, melanoma
Method: as §1

[23] = test system: SK-MEL-5; settings: Homo sapiens, SK-MEL-5, melanoma
Method: as §1

[24] = test system: SK-OV-3; settings: Homo sapiens, SK-OV-3, ovarian cancer
Method: as §1

[25] = test system: UACC-62; settings: Homo sapiens, UACC-62, melanoma
Method: as §1

[26] = read-out: 50% Growth (Relative to Control)
[27] = read-out: No Growth (Relative to Control)

## ClCc1ccc2ccc3ccc(CCl)nc3c2n1 [2,9-bis(chloromethyl)-1,10-phenanthroline]
[1]; [26]
  IC50: 5.14 µM
[1]; read-out: 50% Loss (50% kill)
  CC50: > 100 µM
[1]; [27]
  IC100: > 100 µM
[2]; [26]
  IC50: 1.8 µM
[2]; read-out: 50% Loss (50% kill)
  CC50: > 100 µM
[2]; [27]
  IC100: 8.64 µM
[3]; [26]
  IC50: 1.48 µM
[3]; read-out: 50% Loss (50% kill)
  CC50: 5.72 µM
[3]; [27]
  IC100: 2.91 µM
[4]; [26]
  IC50: 1.62 µM
[4]; [27]
  IC100: 3.53 µM
[5]; [26]
  IC50: 28.1 µM
[5]; read-out: 50% Loss (50% kill)
  CC50: > 100 µM
[5]; [27]
  IC100: > 100 µM
[6]; [26]
  IC50: 1.56 µM
[6]; read-out: 50% Loss (50% kill)
  CC50: 6.18 µM
[6]; [27]
  IC100: 3.11 µM
[7]; [26]
  IC50: 1.8 µM
[7]; read-out: 50% Loss (50% kill)
  CC50: 23 µM
[7]; [27]
  IC100: 4.43 µM
[8]; [26]
  IC50: 3.02 µM
[8]; read-out: 50% Loss (50% kill)
  CC50: 31.2 µM
[8]; [27]
  IC100: 9.71 µM
[9]; [26]
  IC50: 1.31 µM
[9]; read-out: 50% Loss (50% kill)
  CC50: 5.48 µM
[9]; [27]
  IC100: 2.68 µM
[10]; [26]
  IC50: 0.761 µM
[10]; read-out: 50% Loss (50% kill)
  CC50: 6.43 µM
[10]; [27]
  IC100: 2.39 µM
[11]; [26]
  IC50: 1.89 µM
[11]; read-out: 50% Loss (50% kill)
  CC50: 6.16 µM
[11]; [27]
  IC100: 3.41 µM
[12]; [26]
  IC50: 1.93 µM
[12]; read-out: 50% Loss (50% kill)
  CC50: > 100 µM
[12]; [27]
  IC100: 4.48 µM
[13]; [26]
  IC50: 1.73 µM
[13]; read-out: 50% Loss (50% kill)
  CC50: 9.34 µM
[13]; [27]
  IC100: 4.02 µM
[14]; [26]
  IC50: 3.06 µM
[14]; read-out: 50% Loss (50% kill)
  CC50: 68.3 µM
[14]; [27]
  IC100: 9.91 µM
[15]; [26]
  IC50: 1.75 µM
[15]; read-out: 50% Loss (50% kill)
  CC50: 18.4 µM
[15]; [27]
  IC100: 4.93 µM
[16]; [26]
  IC50: 1.87 µM
[16]; read-out: 50% Loss (50% kill)
  CC50: 6.63 µM
[16]; [27]
  IC100: 3.52 µM
[17]; [26]
  IC50: 6.85 µM
[17]; read-out: 50% Loss (50% kill)
  CC50: > 100 µM
[17]; [27]
  IC100: > 100 µM
[18]; [26]
  IC50: 1.65 µM
[18]; read-out: 50% Loss (50% kill)
  CC50: 6.03 µM
[18]; [27]
  IC100: 3.16 µM
[19]; [26]
  IC50: 1.79 µM
[19]; [27]
  IC100: 3.74 µM
[20]; [26]
  IC50: 2.99 µM
[20]; read-out: 50% Loss (50% kill)
  CC50: 41.8 µM
[20]; [27]
  IC100: 11.2 µM
[21]; [26]
  IC50: 1.35 µM
[21]; read-out: 50% Loss (50% kill)
  CC50: 6.5 µM
[21]; [27]
  IC100: 2.97 µM
[22]; [26]
  IC50: 1.77 µM
[22]; read-out: 50% Loss (50% kill)
  CC50: 16.6 µM
[22]; [27]
  IC100: 4.81 µM
[23]; [26]
  IC50: 1.59 µM
[23]; read-out: 50% Loss (50% kill)
  CC50: 9.45 µM
[23]; [27]
  IC100: 3.88 µM
[24]; [26]
  IC50: 8.9 µM
[24]; read-out: 50% Loss (50% kill)
  CC50: > 10 µM
[24]; [27]
  IC100: > 10 µM
[25]; [26]
  IC50: 1.18 µM
[25]; read-out: 50% Loss (50% kill)
  CC50: 5.07 µM
[25]; [27]
  IC100: 2.45 µM
